Results as given in patent US20210369691A1, “METHODS AND COMPOSITIONS FOR IMPROVING BONE MARROW HEMATOPOIETIC FUNCTIONS” (Sun Yat-Sen University, priority 2018, published 2021).

Assays:
white blood cells = assay: White blood cell recovery in peripheral blood after 5FU; type: in vivo, mice; conditions: after 5FU 150 mg/kg once; ABC294640 10 mg/kg every other day; days 0, 1, 5, 11; vs solvent control; FIG. 5
Method: Preparation of the SphK2 inhibitor was as described in Example 4. Twelve 8-week-old C57 mice purchased from Laboratory Animal Center, Sun Yat-sen University were selected and divided evenly into two groups. The mice were intraperitoneally injected with 5FU at a dose of 150 mg/kg once. The injection of the inhibitor ABC294640 and the solvent control solution was as described in Example 4, which started from the day after 5-fluorouracil injection, followed by injections once every other day, at a dose of 10 mg/kg, until the end of the experiment. Periphery blood (PB) of each mouse was separately collected to determine white blood cell (WBC) counts 0, 1, 5 and 11 days after 5-FU administration. T-test analysis was carried out using Graphpad6.0, and differences were considered statistically significant when P<0.05.

hematopoietic stem cells [1] = assay: Hematopoietic repopulation by transplantation of bone marrow cells from inhibitor-treated mice; type: in vivo
Method: To analyze whether Sphk2 deficient hematopoietic stem cells have increased hematopoietic function, 100 hematopoietic stem cells (Lin^−Sca-1^+c-Kit^+CD150^+CD48^−) from Sphk2 deficient mice or control donor mice were transplanted into irradiated wide-type recipients along with 2×10^5 CD45.1 bone marrow cells. Adult CD45.1 recipient mice were irradiated with an Orthovoltage X-ray source delivering approximately in two equal doses of 450 cGy at least 3 hours apart. Peripheral blood was collected from the tail vein every 4 weeks after the transplantation. Hematopoietic repopulation function was examined from donor-derived blood cells. To evaluate the hematopoietic function of the hematopoietic stem cells, 2×10^5 bone marrow cells from Sphk2 inhibitor or solvent control treated mice were transplanted into irradiated recipients (as described in Example 13). Peripheral blood was collected from the tail vein every 4 weeks after transplantation. The hematopoietic repopulation function was examined from donor-derived blood cells. The Sphk2 inhibitor was prepared as described in Example 4. Briefly, ABC294640 was purchased from Selleck and dissolved in dimethyl sulfoxide (DMSO), which was finally diluted with a mixture solution of polyethylene glycol 400 (PEG400) and physiological saline (1:1) to be administered at a dose of 10 mg/kg. […]

[2] = Survival after repeated high-dose 5FU chemotherapy; type: in vivo, mice; conditions: 5FU 150 mg/kg every 7 days, two times; ABC294640 10 mg/kg every other day; vs control group; FIG. 9
Method: Preparation of SphK2 inhibitors was as described in Example 4. […] 8-week-old C57 mice purchased from Laboratory Animal Center, Sun Yat-sen University were selected and divided evenly into two groups. The mice were intraperitoneally injected with 5FU at a dose of 150 mg/kg, once every 7 days for two times in total. The inhibitor ABC294640 was injected starting from the day after 5FU injection, then injected once every other day, at a dose of 10 mg/kg, until the end of the experiment. Comparison of overall survival rates was performed using the Mantel_Cox log-rank test and differences were considered statistically significant when P<0.05.

hematopoietic stem cells [3] = assay: Hematopoietic stem cell number after bone marrow transplantation; type: in vivo, mice; conditions: 35 days after bone marrow transplantation (900 cGy); ABC294640 10 mg/kg i.p. every other day; **P<0.01; FIG. 10
Method: Twenty-five 8-week-old C57 mice (purchased from Laboratory Animal Center, Sun Yat-sen University) were selected and kept in a specific pathogen free (SPF) environment. 5 mice were randomly selected and sacrificed by cervical dislocation. Femurs and tibias were taken and the bone marrow was obtained from the bone marrow cavity with an 1 ml syringe. Bone marrow was dispersed to form a single cell suspension and lysed with red blood cell lysis buffer for 2 min to remove red blood cells, followed by filtering through a 70 μm filter screen to obtain a single cell suspension. The other 20 mice were treated with X-ray radiation at a dose of 900 cGy, and were injected with 400,000 of the prepared bone marrow single cell suspension via tail vein, respectively. Then, the recipient mice were divided evenly into 2 groups, and mice of the ABC294640 treatment group were subjected to intraperitoneal injection of ABC294640 every other day. Mice in the control group was injected with a solvent solution control (1:1 of physiological saline: PEG400) solution. […] Statistical quantification was performed to determine the number of hematopoietic stem cells using the molecular marker system Lin-Sca-1+c-Kit+CD150+CD48− in combination with flow cytometry. […]

O=C(NCc1ccncc1)C12CC3CC(C1)CC(c1ccc(Cl)cc1)(C3)C2 [ABC294640, 3-(4-chloro-phenyl)-adamantane-1-carboxylic acid (pyridin-4-ylmethyl)-amide]
number of white blood cells from the peripheral blood (white blood cells): significantly increased | increase of hematopoietic reconstitution level (hematopoietic stem cells [1]; 16 weeks after transplantation of 2x10^5 bone marrow cells from treated mice, FIG. 14 panel c): 1.5 fold | generation of multi-hematopoietic lineages in recipients (hematopoietic stem cells [1]; recipients of bone marrow cells from inhibitor-treated mice, FIG. 14 panel d): able to generate multi-hematopoietic lineages | survival period [2]: significantly (***P<0.001) prolonged | number of hematopoietic stem cells in bone marrow (hematopoietic stem cells [3]): increased remarkably
